No end group written: not given here.
How the values were obtained:
Ea.hy926 cells [1] = experiment: Cell viability (MTS assay) of modified cells; type: cell-based
Protocol: (§1) Cell viability measurements were performed on modified cells after washing with warm PBS twice. Then, the cells were subjected to MTS (3-(4,5-dimethylthiazol-2-yl)-5-(3-carboxymethoxyphenyl)-2-(4-sulfophenyl)-2H-tetrazolium) assay kit (Cell Titer 96 Aqueous One solution Cell Proliferation Assay™) and by following the manufacturer's protocol. All recorded values were normalized to healthy cells untreated with polymers. Platelet activation was performed by PE-labelled anti human […] stain was prepared by diluting 20 times using plasma. An aliquot of each platelet sample was labelled using the diluted PE-labelled anti-human […] solution (1:10 dilution) for 30 minutes at room temperature. Platelets incubated in 0.1 mM TRAP were used as positive control and platelets incubated in PE-labelled IgG were used for non-specific binding control. Each sample was analyzed for 10000 platelet events. Each experiment was replicated using a minimum of 3 donors and each donor was performed in triplicates. For human pancreatic islets, live/dead imaging assay was used for cell viability and DTZ detection assay was used to determine insulin-producing beta cells from mixed cell cultures.

Ea.hy926 cells [2] = experiment: Ammonia generation assay for gtTGase ligation on endothelial cells; type: cell-based; conditions: 4° C.; for NH3 production with TGase isoforms: gtTGase and mTGase, 30 minutes
Protocol: (§2) The solutions were mixed thoroughly and incubated at 4° C. for 30 minutes under static conditions. The cell supernatant was collected and the cells were washed three times with PBS and subjected to further analysis. The assessment of polymer attachment to endothelial cells are assessed by ammonia assay.
The extent of gtTGase ligation was assessed using an ammonia assay kit (Sigma™, MAK310) and used according to the manufacturer's protocols. This kit is used for the quantitative determination of ammonia (NH3), a side product in the gtTGase reaction.^6 This assay is based on the o-phthalaldehyde method in which the reagent reacts with NH3 producing a fluorescent product (λex=360 nm/λm=450 nm), proportional to the NH3 concentration in the sample.^7,8 Briefly, PBS was supplemented with 5 mM CaCl2 and 3 mM dithiothreitol (DTT). In a 96 well plate, containing either endothelial cells or glycine ethyl ether (GEE, amine donor), Q-tagged polymer (acyl donor) and guinea pig liver transglutaminase (gtTGase, Sigma™ T5398) were added to the PBS solution to a final concentration of 5 mM, 0.5 mM and 0.2 U/mL respectively (Vf=100 μL). The reaction was thoroughly mixed and rocked gently at 4° C. for 30 minutes. The sample was diluted four-fold and a 10 μL aliquot of the reaction mixture was then transferred to a tube containing 90 μL complete ammonia assay reagent and mixed thoroughly. The solution was left to react for 15 minutes at ambient temperature in the dark. The fluorescence intensity was measured at λex=360 nm/λem=450 nm using a spectrophotometer and the quantity of ammonia in solution was calculated according to Eq. 1: […]
EA.hy 926 cells plated for 15 days were washed twice with warm PBS before introducing a reaction cocktail containing 0.5 mM polymer, 5 mM CaCl2, 3 mM DTT and 0.2 U/mL transglutaminase made in DMEM media solution without phenol red. The reaction was incubated at 4° C. for 30 minutes. Then the supernatant was removed and subjected to ammonia generation assay and the cells were washed twice with warm PBS to remove unreacted polymers.

EA.hy 926 monolayers = experiment: PMS-induced glycocalyx shedding (WGA stain, flow cytometry); type: cell-based; conditions: compared to non-sulfated counterparts
Protocol: EA.hy 926 cells were grown to confluency. Media was replaced, washed with DPBS and incubated with […] NADH, […] PMS (unless otherwise noted) and the indicated concentration of polymer; with PMS being last to be added. […] The cells were then washed extensively, stained using WGA ([…]) for 15 minutes and harvested to be analyzed using flow cytometry. Neuraminidase enzyme was used as a positive control to shed the glycocalyx.

human pancreatic islets = experiment: Compatibility of cell surface engineering on pancreatic islets (LIVE/DEAD, DTZ); type: cell-based; conditions: 0.5 mM polymer, room temperature, 30 minutes
Protocol: FIG. 57: Compatibility of cell surface engineering on human pancreatic islet surfaces using gtTGase. Human pancreatic islets were incubated with 0.5 mM Q-tagged polymer, 0.2 U ml-1 gtTGase, 3 mM GSH and 5 mM CaCl2 at room temperature for 30 minutes. Cell viability was assessed using a LIVE/DEAD stain assay and insulin producing activity was assessed by DTZ detection assay.
as §1, with “For human pancreatic islets, live/dead imaging assay was used for cell viability and DTZ detection assay was used to determine insulin-producing beta cells from mixed cell cultures.” left out

platelets = experiment: Platelet activation (CD62, flow cytometry); type: cell-based, human; conditions: 4° C.
Protocol: as §2
as §1, with “For human pancreatic islets, live/dead imaging assay was used for cell viability and DTZ detection assay was used to determine insulin-producing beta cells from mixed cell cultures.” left out

[3] = system: TNF-α activated Ea.hy926 cells co-cultured with IL-2 activated PBMCs; experiment: PBMC-mediated cytotoxicity (LDH assay); conditions: polymer ligated to cell surface
Protocol: EA.hy 926 monolayers were activated using TNF-α and PBMCs were activated using IL-2 as described in PBMC adhesion experiments. Following activation, PBMC was collected and resuspended in DMEM (Phenol free, 5% FBS, pen/strep). PBMCs were then added to activated EA.hy 926 monolayers (modified and unmodified) to a final concentration of 0.15×10^6 cells/mL and left to incubate at 37° C. and 5% CO2 for 18 hour. After treatment, the supernatant was collected and cell debris was removed through centrifugation. LDH content was measured using LDC cytotoxicity assay (Biovision Inc.™). Cytotoxicity was calculated using the equation below;
where, LDHsample is the amount of LDH released from the sample, LDHPBMC is the amount of LDH released from PBMC samples not subjected to EA.hy 926 monolayers, LDHalive is the amount of LDH released from EA.hy 926 monolayers not subjected to PBMCs, and LDHdead is the amount of LDH released of EA.hy926 monolayers treated with RIPA buffer for 10 minutes at room temperature.

HMEC-1 cell monolayers = experiment: Transendothelial protein passage (FITC-labelled BSA); type: cell-based; conditions: TNF-α 2000 U/mL, 3 hours; 0.5 mM polymer
[4] = system: IL-2 activated PBMCs on TNF-α activated Ea.hy926 monolayers; experiment: PBMC adhesion to endothelial surfaces; type: cell-based, human
Protocol: Confluent Ea.hy926 monolayers seeded in a 48 well plate (30,000 cells/well) were activated with TNF-α (2000 U/mL, 3 hours). To obtain PBMCs, EDTA anticoagulated blood from healthy donors was subjected to ficoll density gradient centrifugation Histopaque™-1077 (Sigma Aldrich™). PBMCs were cultured for 24 h in RPMI-1640 containing 10% FBS (v/v), 1000 U/mL recombinant human IL-2 (Cedarlane™)^11 and 1% P/S. Prior to fluorescent labelling, cultured PBMCs were tested for absence of platelets by labelling an aliquot of cells with FITC-labelled anti-human […] (1:200 Beckman Coulter™) and analyzed by flow cytometry (CytoFLEX™, Beckman Coulter™). PBMCs containing <1% platelets were implemented for further study. The PBMC composition was also measured using a hematological analyzer (XN-550™ automated hematology analyzer, Sysmex Canada Inc.™). Following IL-2 treatment the typical composition of the PBMCs were ˜80% lymphocytes, 5% immature granulocytes, 2% basophils and 13% monocytes. […] PMBC adhesion was quantified by lysing the cells with RIPA buffer, spinning at 15,000 g to remove cell debris and measuring the fluorescent intensity of the CMFDA Dye in the lysate (λex/λem=492/517 nm using a plate reader (Spectramax3™, Molecular Devices™).

[5] = system: BALB/c aortic allograft in C57/BL/6 recipient; experiment: Serum cytokine array after aortic interposition grafting; type: in vivo, mouse; conditions: 2 days and 15 days post-transplant, 0.5 mM LPGS-Q
Protocol: To assess the immune modulatory effect of enzymatic polymer grafting, an antibody array kit based on a sandwich ELISA principle (Proteome Profiler™, Panel A; R&D Systems™) was used to screen the cytokine and chemokine expression level in sera of animals according to the manufacturer's protocol. Relative expression of 40 murine cytokines and chemokines captured by corresponding antibodies spotted on a nitro-cellulose membrane was determined.
The antibodies for the following cytokines were spotted on the membrane: BLC, C5a, G-CSF, GM-CSF, I-309, Eotaxin, sICAM-1, IFN-g, IL-1a, IL-1b, IL-1ra, IL-2, IL-3, IL-4, IL-5, IL-6, IL-7, IL-10, IL-13, IL-12 p70, IL-16, IL-17 IL-23, IL-27, CXCL10 (IP-10), I-TAC, KC, M-CSF, CCL2 (MCP-1), CCL12 (MCP-5), MIG, CCL3 (MIP-1a), CCL4 (MIP-1b), CXCL2 (MIP-2), CCL5 (RANTES), SDF-1, TARC, TIMP-1, TNF-α, TREM-1. […] Following the blocking step for 1 h at 4° C., a mixture of detection antibody cocktail and 100 μL of serum sample was incubated overnight at 4° C. with the membrane. Captured proteins were labeled with a streptavidin-functionalized IR-Dye (IRDye 680RD Streptavidin; LI-COR) (1:20,000 dilution in 10% bovine serum albumin, 30 min at RT) and scanned using a LI-COR Odyssey Infrared Imaging System™. The software ImageJ™ (Version 1.52s) was used to determine the integrated density of the spots on the array images after background subtraction. […]

In the case of “WLAQRPH-PEG: Q-tagged PEG polymer used to compare TGase isoforms (also: conjugated to PEG, site not given here) [reference compound]”, the “cell viability with TGase isoforms” value (Ea.hy926 cells [1]) is reported as “favourable results” and the “NH3 production with TGase isoforms” value (Ea.hy926 cells [2]) is reported as “favourable results”.

In the case of “GQQQLGGGGG-PEG: Q-tagged PEG polymer used to compare TGase isoforms (also: conjugated to PEG, site not given here) [reference compound]”, the “cell viability with TGase isoforms” value (Ea.hy926 cells [1]) is reported as “favourable results” and the “NH3 production with TGase isoforms” value (Ea.hy926 cells [2]) is reported as “favourable results”.

In the case of “Linear polyglycerol sulfate glutamine [LPGS-Q]”, the “retention of the glycocalyx structure after exposure to superoxide anions” value (EA.hy 926 monolayers) is reported as “significantly larger retention of the glycocalyx structure”, the “cell viability and insulin producing activity” value (human pancreatic islets) is reported as “still produce viable cells” and the “platelet activation (CD62 surface markers)” value (platelets) is reported as “did not induce platelet activation”. For the same substance, the “PBMC-mediated endothelial cell death, in words” value [3] was “reducing PBMC-mediated cytotoxicity”, the “cell metabolic activity after bioconjugation” value (Ea.hy926 cells [1]) was “without affecting cell metabolic activity” and the “cell viability under oxidative stress” value (Ea.hy926 cells [1]; cells grown 15 days, superoxide radicals) was “rescue of the cells viability”. For the same substance, the “NH3 production (surface ligation efficiency)” value (Ea.hy926 cells [2]; 0.5 mM polymer, gtTGase, 30 min) was “higher ammonia production than its non-sulfated counterparts”, the “permeability of the monolayer after TNF-α activation” value (HMEC-1 cell monolayers) was “reduce non-specific macromolecule passage” and the “PBMC adhesion, in words” value [4] was “evading recognition and subsequent adhesion”. The “cytokine profile of sera of recipient mice” value [5] was “beneficial anti-inflammatory properties post-transplantation”.
